Laboratory results reported in patent US11033607B2, “Peptides and methods for preventing ischemic tissue injury” (University Health Network, priority 2012, dated 2021).
“And” between values parts separate entries of the source, which are not always exact repeats. Equal entries are not always repeated.

Legend:
[1] = test system: WT mice subjected to LAD ligation; assay: Myocardial infarction by LAD coronary artery ligation after 14-day peptide infusion, infarct size by TTC; type: in vivo, mouse; conditions: 4 days post-MI, mean±SE
Description: After 2 weeks of continuous peptide infusion, animals were re-anesthesized with i.p ketamine/xylazine and underwent permanent ligation of the proximal left anterior descending (LAD) coronary artery to generate an experimental myocardial infarction (MI), as previously described (Ohta et al. 2004), with the surgeon blinded to treatment groups. At day 4 post-MI, animals were sacrificed and hearts excised for measurement of infarct size (FIG. 1B). This timepoint allows accurate measurement of infarct area prior to onset of cardiac rupture events (Noyan-Ashraf et al. 2005)
Freshly excised hearts were washed twice in cold PBS to remove excess blood, and cut into 2 mm sections perpendicular to the long axis. The sections were incubated at 37° C. in 2% 2,3,5-triphenyltetrazolium chloride (TTC) for 15 min, after which they were washed with PBS and fixed in 4% paraformaldehyde for 1 h before image acquisition using a digital scanner. Image J software (NIH, USA) was used to measure infarct area (TTC unstained white area) and total left ventricle (LV) area. Measurements were performed by two independent investigators blinded to treatment groups, and percent infarct size was calculated as the average of both measurements (infarct area/total LV area×100%).

isolated WT mice hearts = assay: Ex vivo I/R injury, LVDP in presence of soluble AC inhibitor KH7 or transmembrane AC inhibitor Ddox
Protocol: Male, 10-12 week old, C57BI/6 mice were anesthesized with i.p ketamine (100 mg/kg)/xylazine (10 mg/kg)/heparin (1000 IU/kg), and the heart excised quickly, cannulated through the aorta, and perfused retrogradely with Kreb's Heinslet buffer in a Langendorff apparatus as previously described (Ban et al. 2008). […] A small plastic balloon connected to a pressure transducer was inflated inside the LV to measure LV end systolic (LVESP) and end diastolic pressure (LVEDP) obtained from computer analysis (AcqKnowledge 3.7.1. Biopack System, Goleta, Calif.). LVEDP was maintained at 4-8 mm Hg throughout the experiment. After 20 min of equilibration to allow the balloon to adjust inside the LV, hearts were perfused with buffer for 20 min, followed by 20 min perfusion with peptide of interest (FIG. 1a). Global ischemia was then generated by clamping inflow to the heart for 30 min, after which reperfusion was reinstated for 40 min. In the untreated control group, hearts were perfused for a total of 40 min prior to ischemia. LV developed pressure (LVDP) was calculated by subtracting LVEDP from LVESP. Functional recovery of LV function was calculated as LVDP at the end of reperfusion as a percentage of LVDP prior to ischemia.

[2] = test system: mouse model of ischemic stroke; assay: Mouse model of ischemic stroke after 28 days cerebral ventricle infusion
Protocol: Peptides corresponding to the C-terminal domain of GLP-1 as described herein including GLP-1(28-36)^amide are tested in a mouse model of ischemic stroke. GLP-1(28-36)^amide is infused via Alzet® osmotic mini pumps brain infusion kits, specialized for targeted infusion into cerebral ventricles. After 28 days of GLP-1(28-36)^amide infusion, stroke is generated, after which brain infarct sizes are determined by TTC staining.
Protein lysates from brain tissue are extracted and the expression of survival kinases is probed by Western blots.

HL-1 cells = assay: cAMP assay in HL-1 atrial myocyte cell line; type: cell-based, mouse; conditions: HL-1 atrial cardiomyocyte cell line, 30 nM, 10 min, IBMX 250 uM pretreatment
Protocol: (§1) Neonatal mouse ventricular myocytes (FIG. 9A) and atrial HL-1 myocyte cell lines (FIG. 9B) were pretreated with 250 uM IBMX for 30 min followed by treatment with GLP-1(28-36) and SCRAM(28-36) (30 nM each) or IPE and Forsk (10 uM each) or bicarbonate (25 mM) for 10 min. Cells were then lysed for measurement of cytoplasmic cAMP levels. Data represent mean±SE (n=3; triplicate wells for each replicate). After 24 h serum-deprivation, cells were pre-treated with the phosphodiesterase inhibitor IBMX (250 uM) for 30 min, after which the peptide of interest and/or vehicle PBS was added to the media to a final concentration of 30 nM for GLP-1 peptides and Exendin-4, and 10 uM for Isoproterenol and Forskolin. After 10 min drug treatment, cells were lysed and total intracellular cAMP release was measured using an enzymatic immunoassay kit (Cayman Chemicals, Mich.) as per manufacturer's protocol.

[3] = test system: isolated perfused hearts of WT mice; assay: LDH release in coronary effluents of isolated perfused hearts undergoing I/R injury; set-up: species or system mouse; conditions: pretreatment 6 nmol/L, vs untreated control
Protocol: To further ascertain the protective actions of GLP-1(28-36)^amide, LDH release was measured in coronary effluents from the isolated perfused hearts as an indicator of cellular necrosis and death. […] Pretreatment with the GLP-1(28-36)^amide peptide therefore helps prevent cell death following an ischemic event and is useful for the treatment or prevention of ischemic tissue injury and ischemic heart disease.

[4] = test system: Akt, Erk1/2, CREB and eNOS; assay: Western blots of heart lysates from pre-treated mice; type: in vivo, mouse; conditions: organs collected on day 18, pre-treated hearts
Description: Organs were collected on day 18 as shown in the experimental model set out in FIG. 1B and Western blots of heart lysates were processed.

[5] = test system: primary human coronary artery smooth muscle cells (hCSMCs); assay: cAMP assay (enzymatic immunoassay) in hCSMCs; type: cell-based
Protocol: After 24 h serum-deprivation, cells were pre-treated with the phosphodiesterase inhibitor IBMX (250 uM) for 30 min, after which the peptide of interest and/or vehicle PBS was added to the media to a final concentration of 30 nM for GLP-1 peptides and Exendin-4, and 10 uM for Isoproterenol and Forskolin. After 10 min drug treatment, cells were lysed and total intracellular cAMP release was measured using an enzymatic immunoassay kit (Cayman Chemicals, Mich.) as per manufacturer's protocol.

[6] = test system: primary ventricular cardiomyoctyes isolated from neonatal WT mice; assay: cAMP assay in neonatal mouse ventricular myocytes; type: cell-based; conditions: 30 nM, 10 min, IBMX 250 uM pretreatment, vs PBS or scrambled peptide
Protocol: as §1

[7] = 14-day pre-infusion 3.5 pmol/kg/min
[8] = with sAC inhibitor KH7 (2.4 uM)
[9] = with tmAC inhibitor Ddox (2,5 dideoxyadenosine, 12 uM)
[10] = 14-day pre-infusion 18.5 pmol/kg/min

H-HAEGTFTSDVSSYLEGQAAKEFIAWLVKGR-NH2 [GLP-1(7-36)^amide]
% LV infarct size [1, 7]: 23.0±1.9% and 23.0% | LVDP at the end of reperfusion (isolated WT mice hearts; [8]): 73.1±5.3 mmHg | LVDP at the end of reperfusion (isolated WT mice hearts; [9]): 27.1±5.3 mmHg

H-FIAWLVKGR-NH2 [GLP-1(28-36)^amide]
brain infarct size (TTC staining) ([2]; 28 days infusion into cerebral ventricles before stroke): smaller infarct sizes | expression of survival kinases in brain tissue (Western blot) ([2]; mouse, in vivo): upregulation of survival kinases | intracellular cAMP release (HL-1 cells): no intracellular cAMP release | LDH release in coronary effluent [3]: significantly lower concentration of LDH | % LV infarct size [1, 10]: 24.9±2.6% and 24.9±2.4% | activation of Akt, Erk1/2, CREB and eNOS (Western blot of heart lysates) [4]: enhanced activation of Akt, Erk1/2, CREB and eNOS | LVDP at the end of reperfusion (isolated WT mice hearts; [8]): 25.2±1.7 mmHg | LVDP at the end of reperfusion (isolated WT mice hearts; [9]): 67.6±5.8 mmHg | intracellular cAMP, dose dependence [5]: dose-dependent increases in intracellular cAMP | cAMP release in presence of tmAC inhibitor Ddox ([5]; Ddox 25 uM): did not prevent the increase in cAMP | cAMP release in presence of sAC inhibitor KH7 ([5]; KH7 25 uM): abolished | increase in cAMP release ([5]; without AC inhibitor): 2 fold | cAMP response [6]: no cAMP response was detected

H-EGTFTSDVSSYLEGQAAKEFIAWLVKGR-NH2 [GLP-1(9-36)^amide]
% LV infarct size [1, 7]: 26.1±1.4%

H-AGKFWRILV-NH2 [SCRAM(28-36)^amide]
% LV infarct size [1, 10]: 32.4±1.8% | LVDP at the end of reperfusion (isolated WT mice hearts; [8]): 36.4±5.2 mmHg | LVDP at the end of reperfusion (isolated WT mice hearts; [9]): 37.6±5.3 mmHg
